Data reported in patent publication US4720493A, “Thienylthiazole compounds” (Yoshitomi Pharmaceutical Industries, Ltd., priority 1984, dated 1988).
Where a name gives a salt, the structure may show the parent alone.

Tested on: gastric secretion
Assay: Effect on gastric secretion (Shay pylorus ligation)
Assay type: in vivo
Conditions: 10 mg/kg s.c., pylorus-ligated female Wistar rats, 4 hours
Experimental: The experiment was performed according to the method of Shay et al described in Gastroenterology, vol 5, p. 43, 1945.
Groups of ten female Wistar rats, weighing 130.200 g, were deprived of food and the abdomen of each rat was incised and the pylorus ligated under ether anesthesia. Immediately after pylorus ligation, 10 mg/kg of test compounds were subcutaneously administered. After 4 hours, the gastric contents were collected and centrifuged. The supernatant was regarded as volume of gastric secretion. The acidity of gastric juice was determined by titrating the gastric juice with 0.1N sodium hydroxide to pH 7.0 with an automatic titrator (Kyoto Denshi Kogyo K.K., AT-107).
The percent inhibitions (%) of the compounds of the present invention on volume of gastric juice secretion and acidity of gastric juice were calculated and the results are summarized in Table 1.
For `Nc1nc(-c2ccc(CN3CCOCC3)s2)cs1` [Example 5, 2-Amino-4-(5-morpholinomethyl-2-thienyl)thiazole], the “Percent inhibition of acidity of gastric juice” value was 22% and the “Percent inhibition of volume of gastric juice secretion” value was 66%.
In the case of `CCN(CC)Cc1ccc(-c2csc(N)n2)s1.O=C(O)/C=C/C(=O)O` [Example 4, 2-Amino-4-(5-diethylaminomethyl-2-thienyl)thiazole fumarate], the “Percent inhibition of acidity of gastric juice” value was 38% and the “Percent inhibition of volume of gastric juice secretion” value was 65%.
In the case of `CCOCC(=O)NCc1ccc(-c2csc(N)n2)s1` [Example 14, 2-Amino-4-(5-ethoxyacetylaminomethyl-2-thienyl)thiazole], the “Percent inhibition of acidity of gastric juice” value was 39% and the “Percent inhibition of volume of gastric juice secretion” value was 53%.
In the case of `CC(C)NCc1ccc(-c2csc(N)n2)s1.O=C(O)/C=C\C(=O)O` [Example 7, 2-Amino-4-(5-isopropylaminomethyl-2-thienyl)thiazole maleate], the “Percent inhibition of acidity of gastric juice” value was 31% and the “Percent inhibition of volume of gastric juice secretion” value was 80%.
For `Nc1nc(-c2ccc(CCN3CCOCC3)s2)cs1` [Example 65, 2Amino-4-[5-(2-morpholinoethyl)-2-thienyl]thiazole], the “Percent inhibition of acidity of gastric juice” value was 39% and the “Percent inhibition of volume of gastric juice secretion” value was 61%.
With `CC(Oc1ccccc1)C(=O)NCc1ccc(-c2csc(N)n2)s1.O=C(O)/C=C\C(=O)O` (stereo not drawn) [Example 50, 2-Amino-4-[5-(2-phenoxypropionylaminomethyl)-2-thienyl]thiazole maleate] the “Percent inhibition of acidity of gastric juice” value was 37% and the “Percent inhibition of volume of gastric juice secretion” value was 64%.

Tested on: not listed separately
Assay: Toxicity
Assay type: in vivo, ddY-mice
Conditions: 300 mg/kg intraperitoneal, five days after administration, ddY-mice
Excerpt: Compounds of Examples 5, 11, 14, 15 and 55 were orally or intraperitoneally administered to groups of five ddY-mice.
For `Nc1nc(-c2ccc(CNC(=O)COc3ccccc3)s2)cs1.O=C(O)/C=C\C(=O)O` [Example 15, 2-Amino-4-(5-phenoxyacetylaminomethyl-2-thienyl)thiazole maleate], the “survival of mice, intraperitoneal” value was “All mice survived”.

Same assay, conditions: 1000 mg/kg oral, five days after administration, ddY-mice
In the case of `Nc1nc(-c2ccc(CNC(=O)COc3ccccc3)s2)cs1.O=C(O)/C=C\C(=O)O` [Example 15, 2-Amino-4-(5-phenoxyacetylaminomethyl-2-thienyl)thiazole maleate], the “survival of mice, oral” value was “All mice survived”.

Same assay, conditions: in vivo
In the case of `Nc1nc(-c2ccc(CCN3CCN(c4cccc(Cl)c4)CC3)s2)cs1` [Example 55, 2-Amino-4-[5-(2-(4-(3-chlorophenyl)-1-piperazinyl)ethyl)-2-thienyl]thiazolehydrochloride], the “survival of mice, intraperitoneal” value was “All mice survived” and the “survival of mice, oral” value was “All mice survived”.
In the case of `Nc1nc(-c2ccc(CN3CCOCC3)s2)cs1` [Example 5, 2-Amino-4-(5-morpholinomethyl-2-thienyl)thiazole], the “survival of mice, intraperitoneal” value was “All mice survived” and the “survival of mice, oral” value was “All mice survived”.
For `CCOCC(=O)NCc1ccc(-c2csc(N)n2)s1` [Example 14, 2-Amino-4-(5-ethoxyacetylaminomethyl-2-thienyl)thiazole], the “survival of mice, intraperitoneal” value was “All mice survived” and the “survival of mice, oral” value was “All mice survived”.
With `CC(=O)OCC(=O)NCc1ccc(-c2csc(N)n2)s1` [Example 11, 2-amino-4-(5-acetoxyacetylaminomethyl-2-thienyl) thiazole] the “survival of mice, intraperitoneal” value was “All mice survived” and the “survival of mice, oral” value was “All mice survived”.

Tested on: hypoxia
Assay: Effect on hypoxia (survival time)
Assay type: in vivo, female dd-strain mice
Conditions: 30 mg/kg p.o., 30 min before hypoxia 200 mmHg, mice
Experimental: According to the method of Nakanishi et al described in Life Science, vol. 13, p. 467, 1973, 30 mg/kg of test compounds were orally administered to groups of six female dd-strain mice and 30 minutes later the survival time, i.e. time required until respiratory failure, was measured under the hypoxia condition of 200 mmHg. The extention of the survival time against the control group was expressed as a percentage and the results are summarized in Table 3.
In the case of `Nc1nc(-c2ccc(CN3CCOCC3)s2)cs1` [Example 5, 2-Amino-4-(5-morpholinomethyl-2-thienyl)thiazole], the “Extention of the survival time (percentage, against control group)” value was 367%.
With `CC(=O)NCc1ccc(-c2csc(N)n2)s1.Cl` [Example 1, 2-amino-4-(5-acetylaminomethyl-2-thienyl)thiazole hydrochloride] the “Extention of the survival time (percentage, against control group)” value was 280%.
With `Nc1nc(-c2ccc(CN3CCCCC3)s2)cs1.O=C(O)/C=C/C(=O)O` [Example 6, 2-Amino-4-(5-piperidinomethyl-2-thienyl)thiazole fumarate] the “Extention of the survival time (percentage, against control group)” value was 278%.
With `CCOCC(=O)NCc1ccc(-c2csc(N)n2)s1` [Example 14, 2-Amino-4-(5-ethoxyacetylaminomethyl-2-thienyl)thiazole] the “Extention of the survival time (percentage, against control group)” value was 204%.
In the case of `Nc1nc(-c2ccc(CCN3CCOCC3)s2)cs1` [Example 65, 2Amino-4-[5-(2-morpholinoethyl)-2-thienyl]thiazole], the “Extention of the survival time (percentage, against control group)” value was 158%.

Tested on: gastric mucous membrane
Assay: Effect on injury of gastric mucous membrane (ethanol)
Assay type: in vivo, male Wistar rats
Conditions: 1 mg/kg i.p., 30 min before ethanol 5 ml/kg p.o.
Experimental: Male Wistar rats, weighing 170-250 g, were deprived of food for 48 hours and water for 24 hours and then test compounds were intraperitoneally administered. Thirty minutes after administration of test compounds, 5 ml/kg of ethanol was orally administered. One hour later the stomach of each rat was excised and inflated with 8 ml of a 3% formalin solution. The stomach was incised along the greater curvature and the area (mm^2) of gastric injury were measured and summed. The square root of the sum was used as an ulcer index.
In the case of `CC(=O)OCC(=O)NCc1ccc(-c2csc(N)n2)s1` [Example 11, 2-amino-4-(5-acetoxyacetylaminomethyl-2-thienyl) thiazole], the “Percent inhibition (ulcer index, against control group)” value was 73%.

Same assay, conditions: 3 mg/kg i.p., 30 min before ethanol 5 ml/kg p.o.
With `CCOCC(=O)NCc1ccc(-c2csc(N)n2)s1` [Example 14, 2-Amino-4-(5-ethoxyacetylaminomethyl-2-thienyl)thiazole] the “Percent inhibition (ulcer index, against control group)” value was 35%.
In the case of `CC(C)NCc1ccc(-c2csc(N)n2)s1.O=C(O)/C=C\C(=O)O` [Example 7, 2-Amino-4-(5-isopropylaminomethyl-2-thienyl)thiazole maleate], the “Percent inhibition (ulcer index, against control group)” value was 51%.

Same assay, conditions: 10 mg/kg i.p., 30 min before ethanol 5 ml/kg p.o.
For `Nc1nc(-c2ccc(CN3CCCCC3)s2)cs1.O=C(O)/C=C/C(=O)O` [Example 6, 2-Amino-4-(5-piperidinomethyl-2-thienyl)thiazole fumarate], the “Percent inhibition (ulcer index, against control group)” value was 59%.
In the case of `CC(C)NCc1ccc(-c2csc(N)n2)s1.O=C(O)/C=C\C(=O)O` [Example 7, 2-Amino-4-(5-isopropylaminomethyl-2-thienyl)thiazole maleate], the “Percent inhibition (ulcer index, against control group)” value was 63%.

Tested on: tonic seizure
Assay: Antianxiety effect (bicuculline-induced tonic seizure)
Assay type: in vivo
Conditions: Mus musculus, po, 1 hour before bicuculline 0.6 mg/kg i.v., male ddY-mice; read-out: ED50 (prevention of tonic seizure in half of the animals)
Experimental: Test compounds were orally administered to groups of seven male ddY-mice and an hour later 0.6 mg/kg of bicuculline was intraveneously administered. […] The ED50 (mg/kg) was calculated by the probit method as the dose which is sufficient to prevent tonic seizure in half of the animals.
In the case of `Nc1nc(-c2ccc(CCN3CCN(c4cccc(Cl)c4)CC3)s2)cs1` [Example 55, 2-Amino-4-[5-(2-(4-(3-chlorophenyl)-1-piperazinyl)ethyl)-2-thienyl]thiazolehydrochloride], the ED50 was 50 mg/kg.
In the case of `c1ccc(Nc2nc(-c3ccc(CN4CCCCC4)s3)cs2)cc1` [Example 53, 2-Phenylamino-4-(5-piperidinomethyl-2-thienyl)thiazole], the ED50 was 50 to 100 mg/kg.
`Nc1nc(-c2ccc(CCN3CCCCC3)s2)cs1.O=C(O)/C=C\C(=O)O` [Example 54, 2-Amino-4-[5-(2-piperidinoethyl)-2-thienyl]thiazole maleate] showed an ED50 of 50 to 100 mg/kg.
With `Nc1nc(-c2ccc(CCN3CCN(c4cccc(C(F)(F)F)c4)CC3)s2)cs1` [Example 47, 2-Amino-4-[5-(2-(4-(3-trifluoromethylphenyl)-1-piperazinyl)ethyl)-2-thienyl]thiazole] the ED50 was 21 mg/kg.
